Data published in patent US20120263719A1, “COMPOSITIONS AND METHODS FOR TREATING ASPERGILLOSIS” (priority 2009, published 2012).
In brackets after ≈: the same amount, converted by molar mass. Read-outs that look alike come from different tables or passages of the source.

Key:
Aspergillus fumigatus = assay: In vitro antifungal activity (NCCLS M27-A; MIC/MFC, hyphal growth); format: cell-based; settings: for MFC: Aspergillus fumigatus
Experimental: The antifungal activity of mAb (MPS5.44)-alliinase conjugates was determined according to the conditions of National Committee for Clinical Laboratory Standards (NCCLS) document M27-A. Resting conidia (3×10^4 conidia/well) were seeded in 96-well plates and incubated for 4 hours at 37° C. with RPMI/MOPS (100 μl). mAb-alliinase conjugate was applied in serial 2-fold dilutions, in triplicates and incubated for 30 min at 37° C., then washed four times followed by the addition of alliin (0.5 mg/ml). Hyphal growth was monitored by microscopic observation as well as by optical density (OD595), or by fluorescence of the strain CBS/DsRed (excitation at 540 nm, emission at 595 nm). The MIC of the conjugate was determined after 72 hours. The wells in which no fungal germination was detected, were scraped and plated on Sabouraud plates and the number of colonies was counted after 72 hours to determine the MFC. As a control, the antifungal activity was also determined by incubating AF as above with non-conjugated alliinase or with conjugates consisting of the non-specific mAb and alliinase.

AF-infected mice = assay: Animal survival experiment in AF-infected immunosuppressed mice (36 days); format: in vivo; settings: group 8: 1 mg/kg i.t.
Experimental: Eight week-old ICR female mice of body weight 25-28 grams, were maintained under specific pathogen-free conditions and handled under protocols approved by the Weizmann Institute Animal care Committee according to International guidelines. […] Briefly, cortisone (25 mg in 200 μl PBS) was injected i.p. on days 0 and 3. Before infection, mice were anesthetized with isoflurane, and 10^7 DsRed conidia in 50 μl PBS were inoculated intra-nasally on day 0.
Animals infected as above were divided into groups (n=15):
G-1: control group (placebo) were administered i.t. with PBS (50 μl) one hour after infection, followed by (30 minutes later) the i.t. administration of PBS (25 μl); G-2: control group (placebo) were administered i.t. with PBS (50 μl) one hour after infection, followed by (30 minutes later) the i.t. administration of alliin (750 μg in 25 μl PBS). G-3: were administered i.t. with unconjugated mAb MPS 5.44 (50 nmol/50 μl) one hour after infection, followed by (30 minutes later) the i.t. administration of PBS (250); G-4: were administered i.t. with mAb-alliinase conjugate (50 nmol in 50 μl PBS) one hour after infection, followed by (30 minutes later) the i.t. administration of PBS (25 μl); […]
Statistical Analysis: Survival data were analyzed by the Kaplan-Meier method using GraphPad Prism 5 software (GraphPad Inc.). Differences in survival curves were assessed by the log-rank test.

C=CCS[S+]([O-])CC=C (stereo not drawn) [allicin, diallyl-dithiosulfinate]
MFC (Aspergillus fumigatus; read-out: MFC, resting conidia): 15 µg/mL (≈ 92.4 µM)
MFC (Aspergillus fumigatus; read-out: MFC, swollen conidia): 7.5 µg/mL (≈ 46.2 µM)
MFC (Aspergillus fumigatus; pure allicin, data not shown, read-out: MFC, hyphae): 30 µg/mL (≈ 185 µM)

(+)S-Allyl-cysteine sulfoxide [alliin]
growth of Aspergillus cells treated with one component only (Aspergillus fumigatus; alliin without conjugate, or conjugate without alliin): not inhibited in their growth

C[C@@H]1[C@H](O)[C@@H](C)/C=C/C=C/C=C/C=C/C=C/C=C/C=C/[C@H](O[C@@H]2O[C@H](C)[C@@H](O)[C@H](N)[C@@H]2O)C[C@@H]2O[C@](O)(C[C@@H](O)C[C@@H](O)[C@H](O)CC[C@@H](O)C[C@@H](O)CC(=O)O[C@H]1C)C[C@H](O)[C@H]2C(=O)O [Amphotericin B]
MST (AF-infected mice; n=10): 18 days
survival at the end of the experiment (AF-infected mice; n=10, 36 d): 30%
